We go through 23 compounds from patent US20250019387A1 (Frontier Medicines Corporation, priority 0001, published 2025).

The assay has as its target KRAS G12C and cRAF (Ras-binding domain) interaction (Homo sapiens (Human), UniProt P01116, C118S/C51S/C80L/G12C). Nature of the assay: Inhibition of KRAS G12C and cRAF binding (AlphaScreen). The gist of the method:
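Compounds (DMSO) preincubated 19-20 h at room temperature, then RBD with streptavidin donor and glutathione acceptor beads added in 25 mM Hepes pH 7.4, 150 mM NaCl, 5 mM MgCl2, 0.01% Triton X-100, 2% DMSO for 60-90 min. Emission 570 nm (excitation 680 nm); IC50 by 4-parameter fit. Counter-screen used biotin-AviTag-GST instead of RBD.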
Background: In Alpha technology, singlet oxygen from a donor bead excites a nearby acceptor bead.

Setting [1] is: GMPPNP-loaded KRAS G12C, 19-20 hours incubation with compound, read-out: IC50 (Inhibition of KRAS G12C and cRAF Binding).
[2] abbreviates: additional exemplary compounds, KRAS G12C and cRAF binding, read-out: RAF1 RBD IC50.

Read-outs that look alike come from different tables or passages of the source. Bounds are passed on as bounds.

A word on the IC50: it is the concentration that inhibits the measured activity by half.

KRAS G12C and cRAF (Ras-binding domain) interaction, sequence (P01116 other isoform, or with tags, fused parts or gaps G12C/C51S/C80L/C118S): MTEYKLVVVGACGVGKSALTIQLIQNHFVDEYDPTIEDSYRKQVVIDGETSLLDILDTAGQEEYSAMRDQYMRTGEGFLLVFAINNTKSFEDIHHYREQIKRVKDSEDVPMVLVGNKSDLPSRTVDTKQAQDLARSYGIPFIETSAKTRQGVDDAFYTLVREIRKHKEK

In the case of `CN(c1nc(OC[C@@]23CCCN2C[C@H](F)C3)nc2c(F)c(-c3cccc4cccc(Cl)c34)ncc12)[C@@H]1CCN(C(=O)/C=C/c2nc(C(F)F)no2)C1` [Example 157, (E)-1-((R)-3-((7-(8-chloronaphthalen-1-yl)-8-fluoro-2-(((2R,7aS)-2-fluorotetrahydro-1H-pyrrolizin-7a(5H)-yl)methoxy)pyrido[4,3-d]pyrimidin-4-yl)(methyl)amino)pyrrolidin-1-yl)-3-(3-(difluoromethyl)-1,2,4-oxadiazol-5-yl)prop-2-en-1-one], the IC50 under setting [1] was under 0.01 µM. As to `Cc1nccc(/C=C/C(=O)N2CCC[C@H](Nc3nc(OC[C@@]45CCCN4C[C@H](F)C5)nc4c(F)c(-c5cccc6cccc(Cl)c56)ncc34)C2)n1`, the IC50 under setting [2] was over 0.5 µM. With `C=CC(=O)CN(C)c1nc(OC[C@@H]2CCCN2C)nc2c1CCN(c1cccc3cccc(Cl)c13)C2` [Example 40, (S)-1-((7-(8-chloronaphthalen-1-yl)-2-((1-methylpyrrolidin-2-yl)methoxy)-5,6,7,8-tetrahydropyrido[3,4-d]pyrimidin-4-yl)(methyl)amino)but-3-en-2-one], the IC50 under setting [1] lay within 0.01 to 0.1 µM. With `CN(CCS(=O)(=O)/C=C/CN1CCC(F)(F)C1)c1nc(OC[C@@H]2CCCN2C)nc2c(F)c(-c3cccc4cccc(Cl)c34)ncc12`, under setting [2], the half-maximal inhibitory concentration (IC50) was over 0.5 µM. Same read-out and setting: as for `CN(CC1CN(C#N)C1)c1nc(OCC23CCCN2CCC3)nc2c1CCN(c1cccc3cccc(Cl)c13)C2`, the figure is 0.1 to 0.5 µM; as for `CCOC/C=C/S(=O)(=O)CCN(C)c1nc(OCC23CCCN2CCC3)nc2c1CCN(c1cccc3cccc(Cl)c13)C2`, over 0.5 µM.

Regarding `CN(c1nc(OC[C@@]23CCCN2C[C@H](F)C3)nc2c(F)c(-c3cccc4ccc(F)c(Cl)c34)ncc12)[C@@H]1CCN(C(=O)/C=C/C2CCCO2)C1` (stereo partly drawn) [Example 252, (E)-1-((R)-3-((7-(8-chloro-7-fluoronaphthalen-1-yl)-8-fluoro-2-(((2R,7aS)-2-fluorotetrahydro-1H-pyrrolizin-7a(5H)-yl)methoxy)pyrido[4,3-d]pyrimidin-4-yl)(methyl)amino)pyrrolidin-1-yl)-3-(tetrahydrofuran-2-yl)prop-2-en-1-one], the 50% inhibitory concentration (IC50) under setting [1] was in the range of 0.1 to 0.5 µM. Same read-out and setting: the value for `Cc1cc(/C=C/C(=O)N2CC(CN(C)c3nc(OC[C@@]45CCCN4C[C@H](F)C5)nc4c(F)c(-c5cccc6cccc(Cl)c56)ncc34)C2)nc(C)n1` [Example 275, (E)-1-(3-(((7-(8-chloronaphthalen-1-yl)-8-fluoro-2-(((2R,7aS)-2-fluorohexahydro-1H-pyrrolizin-7a-yl)methoxy)pyrido[4,3-d]pyrimidin-4-yl)(methyl)amino)methyl)azetidin-1-yl)-3-(2,6-dimethylpyrimidin-4-yl)prop-2-en-1-one] was 0.1 to 0.5 µM.

For the compound `C=CC(=O)N1CCC[C@@H](N(C)c2nc(OCC34CCCN3CCC4)nc3c(F)c(-c4cccc5cccc(Cl)c45)ncc23)C1`, the half-maximal inhibitory concentration (IC50) under setting [2] was over 0.5 µM.

Turning to `CN1CC(=CC(=O)N2CC[C@@H](N(C)c3nc(OC[C@@]45CCCN4C[C@H](F)C5)nc4c(F)c(-c5cccc6cccc(Cl)c56)ncc34)C2)C1` [Example 276, 1-((R)-3-((7-(8-chloronaphthalen-1-yl)-8-fluoro-2-(((2R,7aS)-2-fluorotetrahydro-1H-pyrrolizin-7a(5H)-yl)methoxy)pyrido[4,3-d]pyrimidin-4-yl)(methyl)amino)pyrrolidin-1-yl)-2-(1-methylazetidin-3-ylidene)ethan-1-one], the IC50 under setting [1] lay within 0.01 to 0.1 µM. For the compound `C=CC(=O)CCN(C)c1nc(OC[C@@H]2CCCN2C)nc2c1CCN(c1cccc3cccc(Cl)c13)C2`, the IC50 under setting [2] lay in the range of 0.01 to 0.1 µM. As for `CC(C)c1noc(/C=C/C(=O)N2CC[C@@H](N(C)c3nc(OC[C@@]45CCCN4C[C@H](F)C5)nc4c3CCN(c3cccc5cccc(Cl)c35)C4)C2)n1` [Example 136, (E)-1-((R)-3-((7-(8-chloronaphthalen-1-yl)-2-(((2R,7aS)-2-fluorohexahydro-1H-pyrrolizin-7a-yl)methoxy)-5,6,7,8-tetrahydropyrido[3,4-d]pyrimidin-4-yl)(methyl)amino)pyrrolidin-1-yl)-3-(3-isopropyl-1,2,4-oxadiazol-5-yl)prop-2-en-1-one], under setting [1], the IC50 fell in the range of 0.01 to 0.1 µM.

With `CN(C)C(=O)/C=C/C(=O)N1CC[C@@H](N(C)c2nc(OCC34CCCN3CCC4)nc3c(F)c(-c4cccc5cccc(Cl)c45)ncc23)C1`, the IC50 under setting [2] is over 0.5 µM.

For `C=CC(=O)N1C[C@@H]2C[C@H]1CN2c1nc(OCC23CCCN2CCC3)nc2c1CCN(c1cccc3cccc(Cl)c13)C2`, the half-inhibitory concentration (IC50) under setting [2] was over 0.5 µM.

With `CN(C)C/C=C/S(=O)(=O)CCN(C)c1nc(OC[C@@H]2CCCN2C)nc2c(F)c(-c3cccc4cccc(Cl)c34)ncc12`, the IC50 under setting [2] was in the range of 0.01 to 0.1 µM. In the case of `Cc1nccc(/C=C/C(=O)N2CC[C@@H](N(C)c3nc(OC[C@@]45CCCN4C[C@H](F)C5)nc4c(F)c(-c5cccc6ccc(F)c(F)c56)ncc34)C2)n1` [Example 271, (E)-1-((R)-3-((7-(7,8-difluoronaphthalen-1-yl)-8-fluoro-2-(((2R,7aS)-2-fluorotetrahydro-1H-pyrrolizin-7a(5H)-yl)methoxy)pyrido[4,3-d]pyrimidin-4-yl)(methyl)amino)pyrrolidin-1-yl)-3-(2-methylpyrimidin-4-yl)prop-2-en-1-one], the half-maximal inhibitory concentration (IC50) under setting [1] lay within 0.01 to 0.1 µM. On the same count and under the same terms, the value for `CCc1c(F)ccc2cccc(-c3ncc4c(N(C)[C@@H]5CCN(C(=O)/C=C/c6ccnc(C)n6)C5)nc(OC[C@@]56CCCN5C[C@H](F)C6)nc4c3F)c12` [Example 277, (E)-1-((R)-3-((7-(8-ethyl-7-fluoronaphthalen-1-yl)-8-fluoro-2-(((2R,7aS)-2-fluorohexahydro-1H-pyrrolizin-7a-yl)methoxy)pyrido[4,3-d]pyrimidin-4-yl)(methyl)amino)pyrrolidin-1-yl)-3-(2-methylpyrimidin-4-yl)prop-2-en-1-one] was 0.1 to 0.5 µM. As for `O=C(/C=C/CN1CCOCC1)N1C[C@H]2CC[C@@H](C1)N2c1nc(OC[C@@]23CCCN2C[C@H](F)C3)nc2c(F)c(-c3cccc4cccc(Cl)c34)ncc12`, the IC50 under setting [2] was over 0.5 µM. On the same count and under the same terms, the value for `Cc1noc(/C=C/C(=O)N2CCN(c3nc(OC[C@@]45CCCN4C[C@H](F)C5)nc4c3CCN(c3cccc5cccc(Cl)c35)C4)CC2)n1` was over 0.5 µM; that for `CN(c1nc(OCC23CCCN2CCC3)nc2c1CCN(c1cccc3cccc(Cl)c13)C2)[C@@H]1CCN(C(=O)/C=C/CN2CC(F)(F)C2)C1` was 0.1 to 0.5 µM. On to `CN(CCC1CN(C#N)C1)c1nc(OC[C@@H]2CCCN2C)nc2c1CCN(c1cccc3cccc(Cl)c13)C2` [Example 34, (S)-3-(2-((7-(8-chloronaphthalen-1-yl)-2-((l-methylpyrrolidin-2-yl)methoxy)-5,6,7,8-tetrahydropyrido[3,4-d]pyrimidin-4-yl)(methyl)amino)ethyl)azetidine-1-carbonitrile], for which, under setting [1], the IC50 fell in the range of 0.1 to 0.5 µM.

With `C=CC(=O)N1C[C@H](C)C[C@@H](Nc2nc(OC[C@@]34CCCN3C[C@H](F)C4)nc3c(F)c(-c4cccc5cccc(Cl)c45)ncc23)C1`, the IC50 under setting [2] was over 0.5 µM. For the compound `CN(c1nc(OC[C@@H]2CCCN2C)nc2c1CCN(c1cccc3cccc(Cl)c13)C2)C1CCN(C(=O)/C=C/C(=O)O)C1` (stereo partly drawn) [Example 8, (E)-4-(3-((7-(8-chloronaphthalen-1-yl)-2-(((S)-1-methylpyrrolidin-2-yl)methoxy)-5,6,7,8-tetrahydropyrido[3,4-d]pyrimidin-4-yl)(methyl)amino)pyrrolidin-1-yl)-4-oxobut-2-enoic acid], the IC50 under setting [1] is 0.1 to 0.5 µM.
